Test results reported in patent publication US9855243B2, “Topical anti-inflammatory pharmaceutical composition with zileuton cream formulation” (Qurient Co., Ltd., priority 2013, dated 2018).
“And” between values parts separate entries of the source, which are not always exact repeats. Identical values can stand only once.

Assays:
[1] = test system: atopic dermatitis symptoms; settings: clinical trials; oral administration; cited from earlier work
[2] = Screening of excipient suitability: zileuton with excipient, stability at 50° C.; type: physicochemical
Procedure: Suitability of components generally used in cream formulation with respect to zieluton was screened, prior to preparing a zieluton cream formulation. […] That is, the stability of excipient at 50° C. was tested.

[3] = Zileuton API alone, 2 weeks, 50° C.
[4] = Zileuton API alone, 4 weeks, 50° C.
[5] = with Carbomer 1:1, 2 weeks, 50° C.
[6] = with Carbomer 1:1, 4 weeks, 50° C.
[7] = with Ceteareth-20 1:1, 2 weeks, 50° C.
[8] = with Ceteareth-20 1:1, 4 weeks, 50° C.
[9] = with Hypromellose (HPMC) 1:1, 2 weeks, 50° C.
[10] = with Hypromellose (HPMC) 1:1, 4 weeks, 50° C.
[11] = with Hypromellose (HPMC) 1:1, Day 0
[12] = with Phospholipon 90H 1:1, 2 weeks, 50° C.
[13] = with Phospholipon 90H 1:1, 4 weeks, 50° C.
[14] = with Phospholipon 90H 1:1, Day 0
[15] = with Stearyl alcohol 1:1, 2 weeks, 50° C.
[16] = with Stearyl alcohol 1:1, 4 weeks, 50° C.
[17] = with Stearyl alcohol 1:1, Day 0
[18] = with Titanium dioxide 1:1, 2 weeks, 50° C.
[19] = with Titanium dioxide 1:1, 4 weeks, 50° C.
[20] = with Titanium dioxide 1:1, Day 0
[21] = with White wax 1:1, 2 weeks, 50° C.
[22] = with White wax 1:1, 4 weeks, 50° C.

CC(c1cc2ccccc2s1)N(O)C(N)=O (racemic) [Zileuton, (±)-1-(1-(benzo [b]thiophen-2-yl)ethyl)-1-hydroxyurea]
Effect on atopic dermatitis symptoms [1]: alleviates atopic dermatitis symptoms
Appearance [2, 3]: White
TRS. % [2, 3]: 3.311% and 3.006%
Appearance [2, 4]: White
TRS. % [2, 4]: 2.711% and 2.493%
TRS. % ([2]; Zileuton API alone, Day 0): 2.378%
Appearance [2, 5]: White
TRS. % [2, 5]: 2.385% and 3.067%
Appearance [2, 6]: White
TRS. % [2, 6]: 2.330% and 2.403%
Appearance ([2]; with Carbomer 1:1, Day 0): White
TRS. % ([2]; with Carbomer 1:1, Day 0): 3.326%
Appearance [2, 7]: White
TRS. % [2, 7]: 3.445% and 3.365%
Appearance [2, 8]: White
TRS. % [2, 8]: 3.632% and 3.549%
Appearance ([2]; with Ceteareth-20 1:1, Day 0): White
TRS. % ([2]; with Ceteareth-20 1:1, Day 0): 2.394%
Appearance [2, 9]: White
TRS. % [2, 9]: 2.864% and 2.949%
Appearance [2, 10]: White
TRS. % [2, 10]: 2.555% and 2.580%
Appearance [2, 11]: White
TRS. % [2, 11]: 2.610%
Appearance [2, 12]: White
TRS. % [2, 12]: 2.820% and 2.846%
Appearance [2, 13]: White
TRS. % [2, 13]: 2.557% and 2.429%
Appearance [2, 14]: White
TRS. % [2, 14]: 2.400%
Appearance [2, 15]: White
TRS. % [2, 15]: 2.935% and 2.796%
Appearance [2, 16]: White
TRS. % [2, 16]: 2.512% and 2.567%
Appearance [2, 17]: White
TRS. % [2, 17]: 3.311%
Appearance [2, 18]: White
TRS. % [2, 18]: 2.803% and 2.839%
Appearance [2, 19]: White
TRS. % [2, 19]: 2.507% and 2.504%
Appearance [2, 20]: White
TRS. % [2, 20]: 2.344%
Appearance [2, 21]: White
TRS. % [2, 21]: 2.863% and 2.843%
Appearance [2, 22]: White
TRS. % [2, 22]: 2.459% and 2.381%
Appearance ([2]; with White wax 1:1, Day 0): White
TRS. % ([2]; with White wax 1:1, Day 0): 2.372%
